Measured values as given in patent US20130131088A1 (UNIVERSITY HEALTH NETWORK, priority 2010, published 2013).

Columns and labels:
[1] = test system: AML cell lines and the KMS11 mM cell line; assay: combination tests (FIG. 12); type: cell-based; conditions: in combination with fluvastatin
Text: FIG. 12. Combination tests.

[2] = test system: AML-2; assay: potentiation of statin cytotoxic effects by agents that mimic DP activities; type: cell-based; conditions: in combination with statin
Procedure: (§1) As cilostazol inhibits PDE3 which activates. PKA, studies were carried out using various PKA activators, including forskolin, a cell permeable analog of cAMP, db-cAMP, and a PDE3 inhibitor.

[3] = test system: KMS11; assay: as above; type: cell-based; conditions: in combination with statin
Procedure: as §1

[4] = test system: AML-3 cell line; assay: potentiation of statin cytotoxic/apoptotic effects by agents that mimic DP activities; type: cell-based; conditions: for potentiation of the cytotoxic effects of statins / statin cancer cell death: in combination with statin (forskolin with fluvastatin)
Procedure: The mechanism of action was investigated. First, to tease apart which of DP's many activities may be functionally critical, the synergistic potential of a panel of agents that mimics DP in one or more of its activities was tested (see Table 1).
As cilostazol inhibits PDE3 which activates. PKA, studies were carried out using various PKA activators, including forskolin, a cell permeable analog of cAMP, db-cAMP, and a PDE3 inhibitor. […] Inhibition of PDEs 6, 9 and 11 by zaprinast is expected to raise cGMP but not cAMP levels.

[5] = test system: KMS11-luc (KMS11 cells stably expressing luciferase)
Text: Tumours were imaged in mice on designated days by whole-body imaging using the IVIS imaging system illustrated by a representative image (C). Briefly, mice were i.p. injected with luciferein followed by anesthetization with isoflurane. Signal intensity was quantified using Living Image versio 2.50.2 (Xenogen) by summing detected photon counts from dorsal and ventral images.

[6] = test system: CREB phosphorylation; assay: CREB phosphorylation immunoblot (LI-COR quantification); type: cell-based; conditions: AML-3 cell line, 2 hours post-treatment
Procedure: as §1

[7] = test system: AML-3 cell line; assay: apoptosis by fixed PI, TUNEL and PARP cleavage; conditions: combination of dipyridamole and atorvastatin, 48 hrs; MVA dependant
[8] = test system: breast cancer cell lines (e.g. MCF-7); assay: potentiation and synergy with statin in breast cancer cell lines; type: cell-based; conditions: with fluvastatin, 72 hours
Procedure: (§2) Atorvastatin was used in A549's and fluvastatin the breast cancer cell lines to asses potentiation and synergy.
(§3) Experiments in breast cancer cell lines (e.g. MCF-7) as well as the lung cancer cell lines (e.g. A549) were carried out similarly as described above.
(§4) Atorvastatin was used in A549's and fluvastatin the breast cancer cell lines to assess potentiation and synergy.

[9] = test system: HMGCR mRNA in LP1 mM cells; assay: HMGCR mRNA levels by real-time PCR (SYBR Green); type: cell-based; conditions: combination of statins and dipyridamole, 16 hours post compound treatment
Procedure: (§5) RNA from primary AML and LP1 cells was harvested 24 and 16 hours post compound treatment respectively using TRIZOL reagent. HMGCR mRNA levels were assessed using real-time PCR (SYBR Green). […] For example, Fluva 2 indicates a fluvastatin concentration of 2 μM.

[10] = test system: primary AML patient samples; assay: apoptosis by Annexin V and propidium iodide dual staining; type: cell-based; conditions: 48 hrs
Text: AV−/PI−=live cells, AV+/PI−=early apoptosis, AV+/PI+=late apoptosis, AV−/PI+=necrosis.

[11] = test system: KMS11 cell line; assay: apoptosis by fixed PI, TUNEL and PARP cleavage; conditions: combination of dipyridamole and atorvastatin, 48 hrs; MVA dependant
[12] = test system: A549; assay: potentiation and synergy with statin in lung cancer cell line; type: cell-based; conditions: with atorvastatin, 72 hours
Procedure: as §2, §3, §4

[13] = test system: KMS11 Multiple Myeloma (MM) cells; assay: chemical screen for compounds potentiating the anti-proliferative/cytotoxic effect of atorvastatin (MTS); type: cell-based; conditions: sublethal doses in combination with atorvastatin (IC20), 72 hours
Procedure: A hundred compounds from the chemical library (see text) were assayed at varying concentrations (5-50 μM).
One hundred compounds were evaluated for their ability to potentiate the anti-proliferative activity of atorvastatin on statin-sensitive KMS11 mM cells. Briefly, cells were exposed to sublethal doses of atorvastatin (IC20) alone and in combination with sublethal doses of the compounds.

[14] = test system: HMGCR mRNA in primary AML patient samples; assay: HMGCR mRNA levels by real-time PCR (SYBR Green); type: cell-based; conditions: combination of statins and dipyridamole, 24 hours post compound treatment
Procedure: as §5

[15] = p.o. three times a week for 37 days initiated 2 days post KMS11-luc injection, alone

Question: Which “level of potentiation compared with dipyridamole+fluvastatin” value [1] does the source give for `O=C1CCc2cc(OCCCCc3nnnn3C3CCCCC3)ccc2N1` [Cilostazol, cilostazol] here?
Answer: Its value is “similar”.

Question: What about the “potentiation of fluvastatin cell death” value [1] of the same molecule?
Answer: The value was “potentiated”.

Question: What about the “potentiation of the cytotoxic effects of statins” value [2] of the same molecule?
Answer: Its value is “potentiated”.

Question: And the “potentiation of the cytotoxic effects of statins” value [3]?
Answer: Its value is “potentiated”.

Question: And the “potentiation of the cytotoxic effects of statins / statin cancer cell death” value [4]?
Answer: The value was “potentiated”.

Question: `CC(C)c1c(C(=O)Nc2ccccc2)c(-c2ccccc2)c(-c2ccc(F)cc2)n1CC[C@@H](O)C[C@@H](O)CC(=O)O` [atorvastatin] was tested. Which “effect on tumour growth, lower doses alone” value ([5]; lower doses, p.o. 3 times a week) did it give?
Answer: Its value is “no significant effect”.

Question: And the survival [5, 15]?
Answer: Its survival is “prolonged”.

Question: And the tumor burden [5, 15]?
Answer: The tumor burden was “significantly reduced”.

Question: Which “apoptotic effects in combination with atorvastatin” value ([4]; 0.25 mM in combination with atorvastatin, 48 hours post treatment) does the source give for `CCCC(=O)Nc1ncnc2c1ncn2[C@@H]1O[C@@H]2COP(=O)(O)O[C@H]2[C@H]1OC(=O)CCC` [db-cAMP, dibutyryl-cAMP] here?
Answer: Its value is “recapitulated the DP-atorvastatin apoptotic effects”.

Question: And the CREB phosphorylation [6]?
Answer: Its CREB phosphorylation is “increase”.

Question: What does the source list for `OCCN(CCO)c1nc(N2CCCCC2)c2nc(N(CCO)CCO)nc(N3CCCCC3)c2n1` [dipyridamole]?
Answer: induction of apoptosis [7]: induced apoptosis; potentiation of the anti-cancer effects of statins [8]: potentiated; upregulation of HMGCR mRNA [9]: prevents the upregulation; induction of apoptosis ([10]; in combination with atorvastatin): induced apoptosis; induction of apoptosis ([10]; in combination with fluvastatin): induced apoptosis; induction of apoptosis [11]: induced apoptosis; potentiation of the anti-cancer effects of statins [12]: potentiated; potentiation of the anti-proliferative activity of atorvastatin [13]: remarkable potentiation; upregulation of HMGCR mRNA [14]: prevents the upregulation; CREB phosphorylation [6]: increase

Question: Which “potentiation of the cytotoxic effects of statins / statin cancer cell death” value [4] does the source give for `C=C[C@@]1(C)CC(=O)[C@]2(O)[C@@]3(C)[C@@H](O)CCC(C)(C)[C@@H]3[C@H](O)[C@H](OC(C)=O)[C@@]2(C)O1` [forskolin] here?
Answer: The value was “potentiated”.
